Data published in PMC2358886, “Evolution of pharmacologic specificity in the pregnane X receptor” (BMC Evolutionary Biology, 2008).
Read-outs that look alike come from different tables or passages of the source.

How the values were obtained:
[1] = target: T1, human PXR (Homo sapiens, UniProt O75469)
T1 sequence (O75469 1-434): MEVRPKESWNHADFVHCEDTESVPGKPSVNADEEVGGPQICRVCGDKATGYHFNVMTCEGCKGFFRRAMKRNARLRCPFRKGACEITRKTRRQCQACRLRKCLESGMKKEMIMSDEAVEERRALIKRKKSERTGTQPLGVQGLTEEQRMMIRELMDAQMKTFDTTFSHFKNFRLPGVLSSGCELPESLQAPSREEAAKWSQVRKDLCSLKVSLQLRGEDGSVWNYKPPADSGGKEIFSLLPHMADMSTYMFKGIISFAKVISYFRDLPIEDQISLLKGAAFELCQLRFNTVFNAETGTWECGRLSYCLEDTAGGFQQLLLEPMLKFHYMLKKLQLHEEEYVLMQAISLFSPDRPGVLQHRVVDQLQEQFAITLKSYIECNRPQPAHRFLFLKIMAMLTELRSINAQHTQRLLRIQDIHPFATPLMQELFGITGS

[2] = system: HepG2 cells
[3] = target: T2, zebrafish PXR (Danio rerio, UniProt A5WYG8)
T2 sequence (A5WYG8 144-430): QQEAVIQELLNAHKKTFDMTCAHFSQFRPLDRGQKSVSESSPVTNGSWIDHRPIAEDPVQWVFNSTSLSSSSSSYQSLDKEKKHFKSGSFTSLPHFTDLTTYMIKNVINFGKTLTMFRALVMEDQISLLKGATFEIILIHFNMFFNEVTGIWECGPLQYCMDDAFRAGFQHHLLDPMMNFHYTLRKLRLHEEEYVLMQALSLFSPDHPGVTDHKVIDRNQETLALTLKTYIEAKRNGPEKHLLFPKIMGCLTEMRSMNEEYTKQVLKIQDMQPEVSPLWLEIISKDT

[4] = -log(EC50), EC50 in molar units, activation of zebrafish PXR
[5] = relative to 20 μM 5α-androstan-3α-ol, assigned an efficacy of 1.0

Compound | hPXR Activity [1] | Toxicity [2] | zfPXR Activity [3, 4] | also measured
4-Pregnen-20β-ol-3,20-dione-17α-sulfate [PR22] | 5.73 | None | None | –
C[C@]12CC[C@H](O)CC1=CC[C@@H]1[C@@H]2CC[C@]2(C)C(=O)CC[C@@H]12 [AN9, 5-Androsten-3β-ol-17-one] | 4.49 | None | – | EC50 [1]: 11 to 50 µM; hPXR Efficacy [1]: 0.52; EC50 [3]: 11 to 50 µM; zfPXR Activity [3]: 4.89; zfPXR Efficacy [3]: 0.35
C[C@H](CC(=O)O)[C@H]1CC[C@H]2[C@@H]3CC[C@@H]4C[C@H](O)CC[C@]4(C)[C@H]3C[C@H](O)[C@]12C [BI26, 23-Nordeoxycholic acid] | 4.79 | None | None | –
C[C@H](CC(=O)O)[C@H]1CC[C@H]2[C@@H]3[C@H](O)C[C@@H]4C[C@H](O)CC[C@]4(C)[C@H]3C[C@H](O)[C@]12C [BI27, 23-Norcholic acid] | 4.02 | None | None | –
C[C@H](CCCO)[C@H]1CC[C@H]2[C@@H]3[C@H](O)C[C@H]4C[C@H](O)CC[C@]4(C)[C@H]3C[C@H](O)[C@]12C [BI29, 5α-Cholan-3α,7α,12α,-24-tetrol] | None | 50 µM | None | –
C[C@H](CCCOS(=O)(=O)O)[C@H]1CC[C@H]2[C@@H]3[C@H](O)C[C@H]4CC(=O)CC[C@]4(C)[C@H]3C[C@H](O)[C@]12C [BI32, 5α-Cholan-7α,12α-diol-3-one-24-sulfate] | None | None | None | –
C[C@H](CCC(O)C(CO)CO)[C@H]1CC[C@H]2[C@@H]3[C@H](O)C[C@@H]4C[C@H](O)CC[C@]4(C)[C@H]3C[C@H](O)[C@]12C (stereo partly drawn) [BI35, 5β-Cholestan-3α,7α,12α,24,26-hexol] | None | 100 µM | None | –
C[C@H](CCCC(CO)CO)[C@H]1CC[C@H]2[C@@H]3[C@H](O)C[C@@H]4C[C@H](O)CC[C@]4(C)[C@H]3C[C@H](O)[C@]12C [BI37, 5β-Cholestan-3α,7α,12α,26,27-pentol] | None | – | None | Toxicity ([2]; human, 24 hr): 50 µM
CC(CO)CCC[C@@H](C)[C@H]1[C@H](O)C[C@H]2[C@@H]3[C@H](O)C[C@H]4C[C@@H](O)CC[C@]4(C)[C@H]3CC[C@]12C (stereo partly drawn) [BI40, 5α-Cholestan-3β,7α,16α,27-tetrol] | None | – | None | Toxicity ([2]; human, 24 hr): 100 µM
C[C@]12CC[C@@H]3c4ccc(O)cc4CC[C@H]3[C@@H]1C[C@@H](O)[C@@H]2O [ES3, 1,3,5(10)-Estratrien-3,16α,17β-triol] | None | – | None | Toxicity ([2]; human, 24 hr): 200 µM
C[C@]12CC[C@@H]3c4ccc(O)cc4CC[C@H]3[C@@H]1C[C@@H](O)C2=O [ES4, 1,3,5(10)-Estratrien-3,16α-diol-17-one] | 5.60 | None | 5.70 | zfPXR Efficacy [3]: 0.17
COc1c(O)ccc2c1CC[C@@H]1[C@@H]2CC[C@]2(C)C(=O)CC[C@@H]12 [ES5, 1,3,5(10)-Estratrien-3-ol-4-methoxy-17-one] | 5.40 | None | 5.62 | zfPXR Efficacy [3]: 0.19
C[C@]12CC[C@@H]3c4ccc(OS(=O)(=O)O)cc4CC[C@H]3[C@@H]1CCC2=O [ES8, 1,3,5(10)-Estratrien-17-one-3-sulfate] | 5.47 | None | None | –
C#C[C@]1(O)CC[C@H]2[C@@H]3CCc4cc(O)ccc4[C@H]3CC[C@@]21C [ES11, 1,3,5(10)-Estratrien-17α-ethinyl-3,17β-diol] | – | – | None | hPXR Efficacy ([1]; human): 0.68; Toxicity ([2]; human, 24 hr): 200 µM
Nc1cccc(C(=O)O)c1 [MI2, 3-Aminobenzoic acid] | None | None | None | –
COc1c(C)c2c(c(O)c1C/C=C(\C)CCC(=O)O)C(=O)OC2 [MI21, Mycophenolic acid] | None | None | None | –
CCC1(c2ccccc2)C(=O)NC(=O)NC1=O [MI25, Phenobarbital] | – | None | – | hPXR Efficacy ([1]; human): 1.19
O=C1NC(=O)C(c2ccccc2)(c2ccccc2)N1 [MI26, Phenytoin] | – | – | – | hPXR Efficacy ([1]; human): 0.52; Toxicity ([2]; human, 24 hr): 200 µM; zfPXR Activity [3]: None
CC(C)CCC[C@@H](C)[C@H]1CC[C@H]2C3=CC=C4C[C@@H](O)CC[C@]4(C)[C@H]3CC[C@]12C [MI28, Provitamin D3] | None | 10 µM | None | –
CC(C)[C@@H](C)/C=C/[C@@H](C)[C@H]1CC[C@H]2C3=CC=C4C[C@@H](O)CC[C@]4(C)[C@H]3CC[C@]12C [MI29, Provitamin D2] | None | 20 µM | None | –
CC1=C(/C=C/C(C)=C/C=C/C(C)=C/CO)C(C)(C)CCC1 [MI31, Retinol] | – | – | – | hPXR Efficacy ([1]; human): 0.20; Toxicity ([2]; human, 24 hr): 50 µM; zfPXR Activity [3]: None
C=C1/C(=C\C=C2/CCC[C@]3(C)[C@@H]([C@H](C)/C=C/[C@H](C)C(C)C)CC[C@@H]23)C[C@@H](O)C[C@@H]1O [MI42, 1α-Hydroxyvitamin D2] | None | – | None | Toxicity ([2]; human, 24 hr): 50 µM
CC1=CC(=O)c2ccccc2C1=O [MI46, Vitamin K3] | – | – | – | hPXR Efficacy ([1]; human): ~0.15; Toxicity ([2]; human, 24 hr): 100 µM; zfPXR Activity [3]: None
CC(=O)[C@@]1(O)CC[C@H]2[C@@H]3CC=C4C[C@@H](O)CC[C@]4(C)[C@H]3CC[C@@]21C [PR11, 5-Pregnen-3β,17-diol-20-one] | 4.47 | None | None | EC50 [1]: 11 to 50 µM
C[C@]12CC[C@@H](O)C[C@H]1CC[C@@H]1[C@@H]2[C@@H](O)C[C@@]2(C)[C@H]1CC[C@]2(O)[C@@H](O)CO [PR17, 5β-Pregnan-3α,11β,17,20α-21-pentol] | 4.33 | 200 µM | 3.95 | zfPXR Efficacy [3, 5]: 0.98
C[C@]12CC[C@@H](O)C[C@H]1CC[C@@H]1[C@@H]2C(=O)C[C@@]2(C)[C@H]1CC[C@]2(O)[C@@H](O)CO [PR18, 5β-Pregnan-3α,17,20α-21-tetrol-11-one] | 4.35 | 200 µM | 4.34 | zfPXR Efficacy [3, 5]: 0.25
C[C@]12CC[C@@H](O)C[C@H]1CC[C@@H]1[C@@H]2C(=O)C[C@@]2(C)[C@H]1CC[C@]2(O)C(=O)CO [PR19, 5β-Pregnan-3α,17,21-triol-11,20-dione] | 4.28 | None | 4.43 | zfPXR Efficacy [3, 5]: 0.33
C[C@@H](O)[C@@]1(O)CC[C@H]2[C@@H]3CCC4=CC(=O)CC[C@]4(C)[C@H]3CC[C@@]21C [PR21, 4-Pregnen-17α,20β-diol-3,20-dione] | None | 200 µM | None | –
